Paper PMC4280904 (Journal of Veterinary Pharmacology and Therapeutics, 2014)
Several values for one entry are separate records, joined by “and”; a condition that tells them apart may be missing. Identical values can stand only once.

Legend:
[1] = Excretion balance of [14C] imepitoin after oral and intravenous dosing; type: in vivo, beagle dogs; settings: for Fraction excreted, Total / Fraction excreted, Urine + Cage wash / Fraction excreted, Feces: cumulative radioactivity, mean (CV %)
plasma proteins = assay: Reversibility of protein binding; type: in vitro ADME; settings: human plasma, incubation up to 2 h at 37 °C, TCA precipitation
CYP2D1 = assay: In vivo enzyme induction: dextromethorphan O-demethylase; parameters: species or system Wistar rats; settings: rats, 3–100 mg/kg p.o. once daily 7 days
plasma protein = assay: In vitro plasma protein binding; type: in vitro ADME; settings: male, human

Structure (SMILES): O=C1N=C(N2CCOCC2)CN1c1ccc(Cl)cc1 [Imepitoin, 1-(4-chlorophenyl)-4-morpholino-imidazolin-2-one]
- tolerability, clinical adverse events ([1]; 20 mg/kg p.o. (3 male, 3 female dogs) and 1 mg/kg i.v. (3 female dogs)): well tolerated
- total radioactivity excreted urinary ([1]; after oral dosing, range males/females): 27–38%
- Fraction excreted, Total ([1]; females, 1 mg/kg i.v., 0–8 h): 30.62 (n < 3) % of intravenous dose
- Fraction excreted, Urine + Cage wash ([1]; females, 1 mg/kg i.v., 0–8 h): 30.62 (n < 3) % of intravenous dose
- Fraction excreted, Feces ([1]; females, 1 mg/kg i.v., 0–24 h): 54.74 (n < 3) % of intravenous dose
- Fraction excreted, Total ([1]; females, 1 mg/kg i.v., 0–24 h): 74.07 (33.4) % of intravenous dose
- Fraction excreted, Urine + Cage wash ([1]; females, 1 mg/kg i.v., 0–24 h): 37.58 (19.1) % of intravenous dose
- Fraction excreted, Feces ([1]; females, 1 mg/kg i.v., 0–48 h): 68.33 (n < 3) % of intravenous dose
- Fraction excreted, Total ([1]; females, 1 mg/kg i.v., 0–48 h): 85.43 (37.2) % of intravenous dose
- Fraction excreted, Urine + Cage wash ([1]; females, 1 mg/kg i.v., 0–48 h): 39.87 (19.9) % of intravenous dose
- Fraction excreted, Total ([1]; females, 1 mg/kg i.v., 0–264 h): 104.43 (4.4) % of intravenous dose
- Fraction excreted, Feces ([1]; females, 20 mg/kg p.o., 0–8 h): 0.09 (n < 3) % of oral dose
- Fraction excreted, Total ([1]; females, 20 mg/kg p.o., 0–8 h): 8.04 (n < 3) % of oral dose
- Fraction excreted, Urine + Cage wash ([1]; females, 20 mg/kg p.o., 0–8 h): 7.95 (n < 3) % of oral dose
- Fraction excreted, Feces ([1]; females, 20 mg/kg p.o., 0–24 h): 40.62 (n < 3) % of oral dose
- Fraction excreted, Total ([1]; females, 20 mg/kg p.o., 0–24 h): 63.58 (n < 3) % of oral dose
- Fraction excreted, Urine + Cage wash ([1]; females, 20 mg/kg p.o., 0–24 h): 22.96 (n < 3) % of oral dose
- Fraction excreted, Feces ([1]; females, 20 mg/kg p.o., 0–48 h): 45.64 (22.0) % of oral dose
- Fraction excreted, Total ([1]; females, 20 mg/kg p.o., 0–48 h): 76.52 (20.8) % of oral dose
- Fraction excreted, Urine + Cage wash ([1]; females, 20 mg/kg p.o., 0–48 h): 30.88 (23.3) % of oral dose
- Fraction excreted, Total ([1]; females, 20 mg/kg p.o., 0–264 h): 93.84 (8.4) % of oral dose
- Fraction excreted, Total ([1]; males, 20 mg/kg p.o., 0–8 h): 0.58 (n < 3) % of oral dose
- Fraction excreted, Urine + Cage wash ([1]; males, 20 mg/kg p.o., 0–8 h): 0.58 (n < 3) % of oral dose
- Fraction excreted, Feces ([1]; males, 20 mg/kg p.o., 0–24 h): 34.41 (92.2) % of oral dose
- Fraction excreted, Total ([1]; males, 20 mg/kg p.o., 0–24 h): 51.11 (66.2) % of oral dose
- Fraction excreted, Urine + Cage wash ([1]; males, 20 mg/kg p.o., 0–24 h): 16.70 (20.9) % of oral dose
- Fraction excreted, Feces ([1]; males, 20 mg/kg p.o., 0–48 h): 75.65 (12.3) % of oral dose
- Fraction excreted, Total ([1]; males, 20 mg/kg p.o., 0–48 h): 97.51 (6.4) % of oral dose
- Fraction excreted, Urine + Cage wash ([1]; males, 20 mg/kg p.o., 0–48 h): 21.86 (20.5) % of oral dose
- Fraction excreted, Total ([1]; males, 20 mg/kg p.o., 0–264 h): 104.74 (2.8) % of oral dose
- total radioactivity excreted within 48 h ([1]; urine + feces, range over dosing groups): 76–97% and 76.5–97.5%
- radioactivity found in the washed precipitate (covalent binding) (plasma proteins): less than 0.5%
- induction of CYP2D1 (CYP2D1): did not induce
- fraction unbound at 15 min, 0.1 μg/mL (plasma protein; heparinized plasma): 0.43
- fraction unbound at 15 min, 1 μg/mL (plasma protein; heparinized plasma): 0.41
- fraction unbound at 15 min, 10 μg/mL (plasma protein; heparinized plasma): 0.43
- fraction unbound at 15 min (plasma protein; plasma (heparinized)): 0.41 to 0.43
